# Test results as given in PubChem BioAssay AID1918942 (Molecular Pharmacology Branch, DTP, NCI, 2023).
# System: 743489-274-T-PDC complex spheroid viability
# Test: Anticancer human tumor 743489-274-T-PDC patient-derived renal cell carcinoma cell line growth inhibition
# Conditions: for IC50: curve of first compound; for viability, T/C: stronger effect = lower value
# How it was run: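 Drug combinations with the LSD1 inhibitor iadademstat tested on tumor cells co-cultured as spheroids with endothelial cells and mesenchymal stem cells. Concentrations descended in half-log increments from clinical Cmax or 10 microM.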
# 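Note: spheroids exposed to compounds for 7 days before readout.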
# 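Throughout, for viability, T/C: 100% = DMSO vehicle control wells.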
structure (smiles),measurement,setting,value
Nc1ncn(C2CC(O)C(CO)S2)c(=O)n1 (stereo not given) + NC1CC1c1ccc(-c2cccc(O)c2)cc1,IC50,second compound 0.1 µM,> 0.3 µM
same,IC50,second compound 0.316 µM,> 0.3 µM
same,IC50,second compound 1 µM,> 0.3 µM
same,IC50,second compound 3.16 µM,> 0.3 µM
same,IC50,second compound 10 µM,> 0.3 µM
same,"viability, T/C","second compound 0.1 µM, first compound 0.000949 µM",102%
same,"viability, T/C","second compound 0.1 µM, first compound 0.003 µM",94.5%
same,"viability, T/C","second compound 0.1 µM, first compound 0.00949 µM",105%
same,"viability, T/C","second compound 0.1 µM, first compound 0.03 µM",85.3%
same,"viability, T/C","second compound 0.1 µM, first compound 0.0949 µM",76.2%
same,"viability, T/C","second compound 0.1 µM, first compound 0.3 µM",74.8%
same,"viability, T/C","second compound 0.316 µM, first compound 0.000949 µM",95.4%
same,"viability, T/C","second compound 0.316 µM, first compound 0.003 µM",102%
same,"viability, T/C","second compound 0.316 µM, first compound 0.00949 µM",90.6%
same,"viability, T/C","second compound 0.316 µM, first compound 0.03 µM",83.3%
same,"viability, T/C","second compound 0.316 µM, first compound 0.0949 µM",74.3%
same,"viability, T/C","second compound 0.316 µM, first compound 0.3 µM",71.1%
same,"viability, T/C","second compound 1 µM, first compound 0.000949 µM",94.2%
same,"viability, T/C","second compound 1 µM, first compound 0.003 µM",89.6%
same,"viability, T/C","second compound 1 µM, first compound 0.00949 µM",81.5%
same,"viability, T/C","second compound 1 µM, first compound 0.03 µM",77.4%
same,"viability, T/C","second compound 1 µM, first compound 0.0949 µM",73.5%
same,"viability, T/C","second compound 1 µM, first compound 0.3 µM",73.2%
same,"viability, T/C","second compound 3.16 µM, first compound 0.000949 µM",96.5%
same,"viability, T/C","second compound 3.16 µM, first compound 0.003 µM",85.8%
same,"viability, T/C","second compound 3.16 µM, first compound 0.00949 µM",83%
same,"viability, T/C","second compound 3.16 µM, first compound 0.03 µM",78.5%
same,"viability, T/C","second compound 3.16 µM, first compound 0.0949 µM",75.1%
same,"viability, T/C","second compound 3.16 µM, first compound 0.3 µM",78%
same,"viability, T/C","second compound 10 µM, first compound 0.000949 µM",92.3%
same,"viability, T/C","second compound 10 µM, first compound 0.003 µM",85.1%
same,"viability, T/C","second compound 10 µM, first compound 0.00949 µM",86.9%
same,"viability, T/C","second compound 10 µM, first compound 0.03 µM",89%
same,"viability, T/C","second compound 10 µM, first compound 0.0949 µM",67.8%
same,"viability, T/C","second compound 10 µM, first compound 0.3 µM",64%
O=C(C=Cn1cnc(-c2cc(C(F)(F)F)cc(C(F)(F)F)c2)n1)NNc1cnccn1 + NC1CC1c1ccc(-c2cccc(O)c2)cc1,IC50,second compound 0.1 µM,> 1 µM
same,IC50,second compound 0.316 µM,> 1 µM
same,IC50,second compound 1 µM,> 1 µM
same,IC50,second compound 3.16 µM,> 1 µM
same,IC50,second compound 10 µM,> 1 µM
same,"viability, T/C","second compound 0.1 µM, first compound 0.00316 µM",97.6%
same,"viability, T/C","second compound 0.1 µM, first compound 0.01 µM",103%
same,"viability, T/C","second compound 0.1 µM, first compound 0.0316 µM",113%
same,"viability, T/C","second compound 0.1 µM, first compound 0.1 µM",85.8%
same,"viability, T/C","second compound 0.1 µM, first compound 0.316 µM",97.9%
same,"viability, T/C","second compound 0.1 µM, first compound 1 µM",86.2%
same,"viability, T/C","second compound 0.316 µM, first compound 0.00316 µM",102%
same,"viability, T/C","second compound 0.316 µM, first compound 0.01 µM",99.8%
same,"viability, T/C","second compound 0.316 µM, first compound 0.0316 µM",108%
same,"viability, T/C","second compound 0.316 µM, first compound 0.1 µM",99.6%
same,"viability, T/C","second compound 0.316 µM, first compound 0.316 µM",76.4%
same,"viability, T/C","second compound 0.316 µM, first compound 1 µM",74.6%
same,"viability, T/C","second compound 1 µM, first compound 0.00316 µM",99.1%
same,"viability, T/C","second compound 1 µM, first compound 0.01 µM",103%
same,"viability, T/C","second compound 1 µM, first compound 0.0316 µM",118%
same,"viability, T/C","second compound 1 µM, first compound 0.1 µM",88%
same,"viability, T/C","second compound 1 µM, first compound 0.316 µM",89.4%
same,"viability, T/C","second compound 1 µM, first compound 1 µM",67.4%
same,"viability, T/C","second compound 3.16 µM, first compound 0.00316 µM",98.7%
same,"viability, T/C","second compound 3.16 µM, first compound 0.01 µM",105%
same,"viability, T/C","second compound 3.16 µM, first compound 0.0316 µM",119%
same,"viability, T/C","second compound 3.16 µM, first compound 0.1 µM",91.3%
same,"viability, T/C","second compound 3.16 µM, first compound 0.316 µM",74.6%
same,"viability, T/C","second compound 3.16 µM, first compound 1 µM",69.5%
same,"viability, T/C","second compound 10 µM, first compound 0.00316 µM",96.2%
same,"viability, T/C","second compound 10 µM, first compound 0.01 µM",101%
same,"viability, T/C","second compound 10 µM, first compound 0.0316 µM",102%
same,"viability, T/C","second compound 10 µM, first compound 0.1 µM",98.6%
same,"viability, T/C","second compound 10 µM, first compound 0.316 µM",86.1%
same,"viability, T/C","second compound 10 µM, first compound 1 µM",57.4%
